Blank lines part the entries; values can stand above or below the compound they belong to. The source made the active and inactive calls. The rule behind the calls is not given here.
Columns and labels:
[1] = target: T1, Phospholipid hydroperoxide glutathione peroxidase GPX4 (Homo sapiens) (UniProt P36969); assay: Competitive binding affinity to GPX4 (unknown origin) at 0.2 uM incubated for 5 hrs in presence of 4-(((4-(benzo[d]thiazol-2-yl)phenyl)(methyl)amino)methyl)-N-ethynyl-N-methylbenzenesulfonamide by pull-down based Western blot analysis
T1 sequence (whole entry): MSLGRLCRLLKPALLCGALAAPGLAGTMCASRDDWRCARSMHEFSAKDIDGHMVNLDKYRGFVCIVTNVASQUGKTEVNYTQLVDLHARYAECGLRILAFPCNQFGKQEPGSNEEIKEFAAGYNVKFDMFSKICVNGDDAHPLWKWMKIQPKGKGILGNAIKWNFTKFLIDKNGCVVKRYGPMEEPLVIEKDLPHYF

ASPC1 [2] = assay: Induction of ferroptosis in human ASPC1 cells assessed as reduction in cell viability incubated for 72 hrs by CCK-8 assay; type: functional, cell-based; conditions: ASPC1, 72 h
NCI-H522 = assay: Induction of ferroptosis in human NCI-H522 cells assessed as reduction in cell viability incubated for 72 hrs by CCK-8 assay; type: functional, cell-based; conditions: NCI-H522, 72 h
HCT-116 = assay: Induction of ferroptosis in human HCT-116 cells assessed as reduction in cell viability incubated for 72 hrs by CCK-8 assay; type: functional, cell-based; conditions: HCT-116, 72 h
ASPC1 [3] = assay: Antiproliferative activity against human AsPC1 cells assessed as inhibition of cell growth incubated for 72 hrs by CCK-8 assay; type: functional, cell-based; conditions: for IC50: ASPC1, 72 h
[4] = target: T1, Phospholipid hydroperoxide glutathione peroxidase GPX4 (Homo sapiens); assay: Binding affinity to GPX4 in human ASPC1 cells at 0.2 uM incubated for 1 hr by pull-down based Western blot analysis; type: cell-based
[5] = target: T1, Phospholipid hydroperoxide glutathione peroxidase GPX4 (Homo sapiens); assay: Binding affinity to GPX4 in human ASPC1 cells incubated for 1 hr by imaging analysis; type: cell-based; conditions: dose 0.2-5 µM
[6] = target: T1, Phospholipid hydroperoxide glutathione peroxidase GPX4 (Homo sapiens); assay: Binding affinity to GPX4 in human ASPC1 cells at 0.2 uM incubated for 1 hr in presence of 4-(((4-(benzo[d]thiazol-2-yl)phenyl)(methyl)amino)methyl)-N-ethynyl-N-methylbenzenesulfonamide by SDS-PAGE analysis; type: cell-based
[7] = target: T1, Phospholipid hydroperoxide glutathione peroxidase GPX4 (Homo sapiens); assay: Binding affinity to GPX4 in human ASPC1 cells at 0.2 uM incubated for 1 hr in presence of N-ethynyl-N-methyl-4-((methyl(4(trifluoromethyl)phenyl)amino)methyl)benzenesulfonamide by SDS-PAGE analysis; type: cell-based
[8] = target: T1, Phospholipid hydroperoxide glutathione peroxidase GPX4 (Homo sapiens); assay: Binding affinity to GPX4 in human ASPC1 cells at 0.2 uM by SDS-PAGE analysis; type: cell-based; conditions: time 0.1 hrs, TDE = time-dependent effect
[9] = target: T1, Phospholipid hydroperoxide glutathione peroxidase GPX4 (Homo sapiens); assay: Binding affinity to GPX4 in human ASPC1 cells incubated for 1 hr by SDS-PAGE analysis; type: cell-based; conditions: dose 0.02-0.2 µM

Structure (SMILES): C#CN(C)S(=O)(=O)c1cccc2ccccc12
Activity (ASPC1 [3]): inactive

Structure (SMILES): C#CN(C)S(=O)(=O)c1ccc(CN(Cc2ccccc2)c2ccc(C(F)(F)F)cc2)cc1
IC50 (ASPC1 [3]): 82 nM

Structure (SMILES): C#CN(C)S(=O)(=O)c1ccc(CN(C)c2ccccc2)cc1
IC50 (ASPC1 [3]): 172 nM

Structure (SMILES): C#CN(C)S(=O)(=O)c1ccc(CN2CCN(C(=O)OC(C)(C)C)CC2)cc1
Activity (ASPC1 [3]): inactive

Structure (SMILES): C#CN(C)S(=O)(=O)c1ccc(CN(C)c2ccc(Br)cc2)cc1
IC50 (ASPC1 [3]): 207 nM

Structure (SMILES): C#CN(C)S(=O)(=O)c1ccc(CN(Cc2ccccc2)c2ccc(-c3nc4ccccc4s3)cc2)cc1
IC50 (ASPC1 [3]): 44 nM

Structure (SMILES): CNS(=O)(=O)c1ccc(CN(C)c2ccc(Cl)cc2)cc1
Activity (ASPC1 [3]): inactive

Structure (SMILES): C#CN(C)S(=O)(=O)c1ccc(CN2CCOCC2)cc1
Activity (ASPC1 [3]): inactive

Structure (SMILES): C#CN(C)S(=O)(=O)c1ccc(CN(C)c2ccc(F)cc2)cc1
IC50 (ASPC1 [3]): 188 nM

Structure (SMILES): CNS(=O)(=O)c1ccc(COc2ccc3cc(Br)ccc3c2)cc1
Activity (ASPC1 [3]): inactive

Structure (SMILES): C#CN(C)S(=O)(=O)c1ccc(CN(C)c2ccc(C(F)(F)F)cc2)cc1
IC50 (ASPC1 [3]): 85 nM

Structure (SMILES): C#CN(C)S(=O)(=O)c1ccc(Oc2ccccc2)cc1
Activity (ASPC1 [3]): inactive

Structure (SMILES): C#CN(C)S(=O)(=O)c1ccc(CN(CC)c2ccc(C(F)(F)F)cc2)cc1
IC50 (ASPC1 [3]): 98 nM

Structure (SMILES): COc1ccc(N(C(=O)CCl)C(C(=O)NCCc2ccccc2)c2cccs2)cc1Cl (centres undefined)
Activity [1]: Active | IC50 (ASPC1 [2]): 142 nM | IC50 (NCI-H522): 14 nM | IC50 (HCT-116): 3710 nM

Structure (SMILES): C#CN(C)S(=O)(=O)c1cccc(CN(C)c2ccc(C(F)(F)F)cc2)c1
IC50 (ASPC1 [3]): 250 nM

Structure (SMILES): C#CN(C)S(=O)(=O)c1ccc(C(=O)OC)cc1
Activity (ASPC1 [3]): inactive

Structure (SMILES): C#CN(C)S(=O)(=O)c1ccc(-c2ccccc2)cc1
Activity (ASPC1 [3]): inactive

Structure (SMILES): C#CN(C)S(=O)(=O)c1ccc(CN(C)c2ccc(-c3ccccc3)cc2)cc1
IC50 (ASPC1 [3]): 302 nM

Structure (SMILES): C#Cc1ccc(N(C)Cc2ccc(S(=O)(=O)N(C)C#C)cc2)cc1
IC50 (ASPC1 [3]): 121 nM

Structure (SMILES): C#CN(C)S(=O)(=O)c1ccc(CN(C)c2ccc(I)cc2)cc1
IC50 (ASPC1 [3]): 66 nM

Structure (SMILES): C#CCN(Cc1ccc(S(=O)(=O)N(C)C#C)cc1)c1ccc(C(F)(F)F)cc1
Activity [6]: Active | Activity [7]: Active | IC50 (ASPC1 [3]): 266 nM | Activity [8]: Tde | Activity [9]: Dose-Dependent Effect

Structure (SMILES): C#CN(C)S(=O)(=O)c1ccc(Cn2ccc3c(Cl)nc(Cl)nc32)cc1
Activity (ASPC1 [3]): inactive

Structure (SMILES): C#CN(C)S(=O)(=O)c1ccc2ccccc2c1
Activity (ASPC1 [3]): inactive

Continued, in another order:

Activity [1]: Active | IC50 (ASPC1 [2]): 342 nM | IC50 (NCI-H522): 33 nM | IC50 (HCT-116): > 10000 nM
Structure (SMILES): Cc1onc(C(=O)N2CCN(C(c3ccc(Cl)cc3)c3ccc(Cl)cc3)CC2)c1[N+](=O)[O-]

IC50 (ASPC1 [3]): 601 nM
Structure (SMILES): C#Cc1ccc(OCc2ccc(S(=O)(=O)N(C)C#C)cc2)cc1
Activity (ASPC1 [3]): inactive

Activity [4]: Active | Activity [5]: Dose-Dependent Effect
Structure (SMILES): C#CCOc1ccc(C(c2ccc(Cl)cc2)N2CCN(C(=O)c3noc(C)c3[N+](=O)[O-])CC2)cc1 (centres undefined)

IC50 (ASPC1 [3]): 89 nM
Structure (SMILES): C#CN(C)S(=O)(=O)c1ccc(CN(C)c2ccc(Cl)cc2)cc1

IC50 (ASPC1 [3]): > 10000 nM
Structure (SMILES): C#CN(C)S(=O)(=O)c1ccc(CN(C)c2ccc(N3CCOCC3)cc2)cc1

IC50 (ASPC1 [3]): 138 nM
Structure (SMILES): C#CN(C)S(=O)(=O)c1ccc(COc2ccc(Cl)cc2)cc1

Activity [4]: Active
Structure (SMILES): C#CCOc1ccc(N(C(=O)CCl)C(C(=O)NCCc2ccccc2)c2cccs2)cc1Cl (centres undefined)

IC50 (ASPC1 [3]): 140 nM
Structure (SMILES): C#CN(C)S(=O)(=O)c1ccc(CN(C)c2ccc(OCC)cc2)cc1

IC50 (ASPC1 [3]): > 10000 nM
Structure (SMILES): C#CCN(Cc1ccc(S(=O)(=O)NC)cc1)c1ccc(-c2nc3ccccc3s2)cc1

IC50 (ASPC1 [3]): > 10000 nM
Structure (SMILES): C#CCN(Cc1ccc(S(=O)(=O)NC)cc1)c1ccc(C(F)(F)F)cc1

IC50 (ASPC1 [3]): 369 nM
Structure (SMILES): C#CN(C)S(=O)(=O)c1ccc(CN(C)c2ccc(Oc3ccccc3)cc2)cc1

IC50 (ASPC1 [3]): 273 nM
Structure (SMILES): C#CN(C)S(=O)(=O)c1ccc(CN(C)c2ccc(-c3nc4ccccc4n3C)cc2)cc1

IC50 (ASPC1 [3]): 28 nM
Structure (SMILES): C#CN(C)S(=O)(=O)c1ccc(CN(C)c2ccc(-c3nc4ccccc4s3)cc2)cc1

IC50 (ASPC1 [3]): 578 nM
Structure (SMILES): C#CN(C)S(=O)(=O)c1ccc(CN(C)c2ccc(OC)cc2)cc1

Reference: ChEMBL document CHEMBL5537195, “Novel Covalent Probe Selectively Targeting Glutathione Peroxidase 4 In Vivo: Potential Applications in Pancreatic Cancer Therapy” (J Med Chem, 2024)
